Literature values in US20110237832A1, “SYNTHESIS OF HDAC INHIBITORS: TRICHOSTATIN A AND ANALOGUES” (University of Notre Dame du Lac, priority 2010, published 2011).

Tested on: HDACs
Settings: read-out: inhibits the activity of HDACs, IC50 value; in human T cells

IC50: 70 nM
Structure (SMILES): CC(/C=C/C(=O)NO)=C\[C@@H](C)C(=O)c1ccc(N(C)C)cc1 [TSA, (+)-Trichostatin A]
